Source: PMC12519771 (BMC Cancer, 2025)

Columns and labels:
[1] = cited from earlier work
[2] = human, in vivo, po, 480 mg
Source text: After completion of Part A, patients continued to Part B of the study. […] Treatment with paclitaxel continued for at least six cycles unless the patient experienced unacceptable paclitaxel-related toxicity or disease progression.
For patients with dose interruption in Cycle 2 before Week 2 Day 5, sample collection could be postponed to Week 2 Day 5 of the subsequent or later cycle, providing there was no dose interruption before Week 2 Day 5 of that cycle.

[3] = Adverse events (CTCAE v5.0), safety analysis set
Procedure: Adverse events were recorded continuously until 30 (± 7) days after discontinuation of study treatment and graded using the National Cancer Institute Common Terminology Criteria for Adverse Events v5.0.

[4] = oral administration, Western and Japanese patients
[5] = related to capivasertib only per investigator, N = 16

NC1(C(=O)N[C@@H](CCO)c2ccc(Cl)cc2)CCN(c2nc[nH]c3nccc2-3)CC1 [Capivasertib, capivasertib]
dose proportionality of plasma exposure (AUC over the dosing interval and Cmax) ([1]; doses ranging from 80 mg to 800 mg): approximately dose-proportional
median tmax [1, 4]: 1 to 2 h
terminal elimination half-life (t½λz) [1, 4]: approximately 10 h
AUC(0–12), gMean gCV % [2]: 5630 62.2 h×ng/mL
AUC(0–48), gMean gCV % [2]: 7244 58.8 h×ng/mL
AUCinf, gMean gCV % [2]: 7397 58.7 h×ng/mL
CL/F, gMean gCV % [2]: 64.9 L/h
tmax, median (range) [2]: 1.0 h
patients with adverse events leading to dose interruptions of capivasertib ([3]; N = 16): 87.5%
patients with adverse events leading to dose reductions of capivasertib ([3]; N = 16): 31.3%
Anaemia, Grade ≥3 [3, 5]: 0 n (%)
Anaemia, any grade [3, 5]: 4 (25.0) n (%)
Any adverse event, Grade ≥3 [3, 5]: 9 (56.3) n (%)
Any adverse event, any grade [3, 5]: 16 (100.0) n (%)
Aspartate aminotransferase increased, Grade ≥3 [3, 5]: 0 n (%)
Aspartate aminotransferase increased, any grade [3, 5]: 1 (6.3) n (%)
Blood albumin decreased, Grade ≥3 [3, 5]: 0 n (%)
Blood albumin decreased, any grade [3, 5]: 1 (6.3) n (%)
Blood bilirubin increased, Grade ≥3 [3, 5]: 0 n (%)
Blood bilirubin increased, any grade [3, 5]: 2 (12.5) n (%)
Blood creatinine increased, Grade ≥3 [3, 5]: 0 n (%)
Blood creatinine increased, any grade [3, 5]: 2 (12.5) n (%)
Blood triglycerides increased, Grade ≥3 [3, 5]: 0 n (%)
Blood triglycerides increased, any grade [3, 5]: 0 n (%)
Blood uric acid increased, Grade ≥3 [3, 5]: 0 n (%)
Blood uric acid increased, any grade [3, 5]: 1 (6.3) n (%)
Diarrhoea, Grade ≥3 [3, 5]: 0 n (%)
Diarrhoea, any grade [3, 5]: 11 (68.8) n (%)
Glycosylated haemoglobin increased, Grade ≥3 [3, 5]: 0 n (%)
Glycosylated haemoglobin increased, any grade [3, 5]: 0 n (%)
Hyperglycaemia, Grade ≥3 [3, 5]: 2 (12.5) n (%)
Hyperglycaemia, any grade [3, 5]: 15 (93.8) n (%)
Hypoalbuminaemia, Grade ≥3 [3, 5]: 0 n (%)
Hypoalbuminaemia, any grade [3, 5]: 4 (25.0) n (%)
Hypocalcaemia, Grade ≥3 [3, 5]: 0 n (%)
Hypocalcaemia, any grade [3, 5]: 1 (6.3) n (%)
Hypokalaemia, Grade ≥3 [3, 5]: 0 n (%)
Hypokalaemia, any grade [3, 5]: 1 (6.3) n (%)
Hypomagnesaemia, Grade ≥3 [3, 5]: 0 n (%)
Hypomagnesaemia, any grade [3, 5]: 4 (25.0) n (%)
Hyponatraemia, Grade ≥3 [3, 5]: 0 n (%)
Hyponatraemia, any grade [3, 5]: 5 (31.3) n (%)
Hypophosphataemia, Grade ≥3 [3, 5]: 0 n (%)
Hypophosphataemia, any grade [3, 5]: 0 n (%)
Nausea, Grade ≥3 [3, 5]: 0 n (%)
Nausea, any grade [3, 5]: 2 (12.5) n (%)
Neutrophil count decreased, Grade ≥3 [3, 5]: 0 n (%)
Neutrophil count decreased, any grade [3, 5]: 1 (6.3) n (%)
Oedema peripheral, Grade ≥3 [3, 5]: 0 n (%)
Oedema peripheral, any grade [3, 5]: 1 (6.3) n (%)
Peripheral sensory neuropathy, Grade ≥3 [3, 5]: 0 n (%)
Peripheral sensory neuropathy, any grade [3, 5]: 0 n (%)
Platelet count decreased, Grade ≥3 [3, 5]: 0 n (%)
Platelet count decreased, any grade [3, 5]: 1 (6.3) n (%)
Proteinuria, Grade ≥3 [3, 5]: 0 n (%)
Proteinuria, any grade [3, 5]: 5 (31.3) n (%)
Pyrexia, Grade ≥3 [3, 5]: 0 n (%)
Pyrexia, any grade [3, 5]: 6 (37.5) n (%)
Rash (group term), Grade ≥3 [3, 5]: 5 (31.3) n (%)
Rash (group term), any grade [3, 5]: 10 (62.5) n (%)
Stomatitis, Grade ≥3 [3, 5]: 0 n (%)
Stomatitis, any grade [3, 5]: 1 (6.3) n (%)
Vomiting, Grade ≥3 [3, 5]: 0 n (%)
Vomiting, any grade [3, 5]: 1 (6.3) n (%)
Weight decreased, Grade ≥3 [3, 5]: 0 n (%)
Weight decreased, any grade [3, 5]: 0 n (%)
White blood cell count decreased, Grade ≥3 [3, 5]: 1 (6.3) n (%)
White blood cell count decreased, any grade [3, 5]: 2 (12.5) n (%)

CC(=O)O[C@H]1C(=O)[C@@]2(C)[C@H]([C@H](OC(=O)c3ccccc3)[C@]3(O)C[C@H](OC(=O)[C@H](O)[C@@H](NC(=O)c4ccccc4)c4ccccc4)C(C)=C1C3(C)C)[C@]1(OC(C)=O)CO[C@@H]1C[C@@H]2O [paclitaxel]
patients with adverse events leading to dose interruptions of paclitaxel ([3]; human, in vivo): 75.0%
patients with adverse events leading to dose reductions of paclitaxel ([3]; human, in vivo): 31.3%
